According to patent US6753176B2, “Aggrecan degrading metallo proteases” (Bristol-Myers Squibb Company, priority 1997, dated 2004):
“Also recorded” adds a separate entry of the source.

Key:
[1] = system: matrix metalloproteinases; test: Inhibition of matrix metalloproteinases; format: biochemical
[2] = system: ADMP; test: ADMP (aggrecanase) activity: cleavage of purified bovine aggrecan monomers at Glu373-Ala374, BC-3 neoepitope antibody Western; format: biochemical
Description: ADMPs were detected at this point by their ability to cleave purified bovine aggrecan monomers isolated from bovine nasal cartilage by the following procedure: Aggrecan was extracted from the cartilage by stirring at 4° C. for 48 hours in 10 volumes of 4M guanidine-HCl in 0.05 M sodium acetate, pH 5.8, containing the protease inhibitors, 0.01M EDTA (EDTA is ethylenediaminetetraacetic acid), 0.1M 6-aminohexanoic acid, 2 mM PMSF and 0.05M benzamidine HCl. Aggrecan monomers were isolated by equilibrium density gradient centrifugation in cesium chloride [Hascall, V. C. and Sajdera, S. W. (1969) J. Biol. Chem. 244, 2384-2396.] and the bottom of this gradient (d>1.54 g/ml) containing the aggrecan monomers, was dialyzed at 4° C. against water and lyophilized.
These aggrecan monomers (500 nM) were incubated at 37° C. for at least 4 hr with ADMPs eluted from the Macro S support column in a final volume of 200 ul in Buffer B (Buffer B contains 50 mM Tris, pH 7.6, containing 0.1 M NaCl and 10 mM CaCl2), quenched with 20 mM EDTA and analyzed for aggrecan fragments produced exclusively by cleavage at the Glu^373-Ala^374 bond within the aggrecan core protein using the monoclonal antibody, BC-3 (Hughes, C. E., et al., Biochem. J. 306:799-804, 1995). This antibody recognizes aggrecan fragments with the N-terminal sequence A^374RGSVIL . . . , generated upon cleavage by ADMPs. The BC-3 antibody recognizes this neoepitope only when it is the N-terminus and not when it is present internally within aggrecan fragments or within the intact aggrecan core protein. […]
After digestion, the samples were precipitated with 5 volumes of acetone and reconstituted in an appropriate volume of SDS-PAGE sample buffer, loaded on 4-12% gradient gels and then separated by SDS-PAGE under non reducing conditions, transferred overnight to nitrocellulose and immunolocated with 1:1000 dilution of the monoclonal antibody BC-3. […] BC-3-reactive aggrecan fragments were then quantified by scanning densitometry.

[3] = molecular target: T1, ADMP-1 (Bos taurus, UniProt Q9TT93); test: Binding of 67 kDa ADMP-1 doublet to aggrecanase-inhibitor hydroxamate affinity resin in the presence of inhibitor; design: species or system bovine
T1 construct: from tissue; host or cells: conditioned medium of IL-1-stimulated bovine nasal cartilage, purified over Macro S, gelatin-agarose and TIMP-1/protein A
T1 sequence (Q9TT93 213-839): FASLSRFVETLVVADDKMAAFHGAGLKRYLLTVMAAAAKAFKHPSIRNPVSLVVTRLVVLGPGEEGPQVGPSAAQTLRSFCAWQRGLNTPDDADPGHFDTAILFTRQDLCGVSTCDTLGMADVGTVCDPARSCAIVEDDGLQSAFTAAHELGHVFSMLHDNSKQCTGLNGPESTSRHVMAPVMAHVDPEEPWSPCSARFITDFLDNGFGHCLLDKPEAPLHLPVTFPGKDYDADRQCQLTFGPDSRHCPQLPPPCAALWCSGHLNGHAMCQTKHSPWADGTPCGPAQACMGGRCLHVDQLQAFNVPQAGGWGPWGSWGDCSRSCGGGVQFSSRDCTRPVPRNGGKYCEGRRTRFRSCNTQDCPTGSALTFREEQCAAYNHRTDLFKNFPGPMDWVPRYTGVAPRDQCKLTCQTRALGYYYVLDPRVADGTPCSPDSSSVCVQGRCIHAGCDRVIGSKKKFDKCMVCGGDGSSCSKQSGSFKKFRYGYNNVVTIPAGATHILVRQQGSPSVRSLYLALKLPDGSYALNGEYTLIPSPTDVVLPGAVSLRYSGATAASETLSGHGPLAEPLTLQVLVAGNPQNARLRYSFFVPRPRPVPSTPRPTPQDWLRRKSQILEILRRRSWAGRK
Description: An ADMP-inhibitor hydroxamate affinity resin was produced in the following manner. POROS 20-NH perfusive chromatographic media (Perseptive Biosystems), a highly crosslinked poly(styrene divinylbenzene) polymer, was mixed overnight with four equivalents of Fmoc-beta-alanine, four equivalents HBTU (O-Benzotriazole-N,N,N′,N′-tetramethyl-uronium hexafluorophosphate), and eight equivalents DIEA (N,N diisopropylethylamine) in DMF (dimethylformamide). The resin was rinsed several times with DMF, then the FMOC group was removed with 20% piperidine/DMF. This coupling/deprotecting scheme was repeated three more times, resulting in four beta-alanine residues coupled to the resin. After the final piperidine deprotection, 1.5 equivalents of a t-butyl protected hydroxamic acid capable of inhibiting ADMP activity was coupled with 1.5 equivalents HBTU and 3 equivalents DIEA in DMF. After rinsing with DMF and CH2Cl2, the t-butyl group was removed by mixing overnight with TFA (trifluoroacetic acid), leaving the hydroxamic acid. The resin was thoroughly rinsed with CH2Cl2 and dried under vacuum.
The eluate from the protein A column was neutralized with 1 M Tris base to pH 7.5 and then incubated for 2 hours with the aggrecanase-inhibitor hydroxamate resin at a ratio of 1 mg resin for every 1 ml of eluate. […]

Row | Compound | inhibition of matrix metalloproteinases [1] | inhibition of ADMP activity [2] | binding of 67 kDa ADMP-1 to the affinity resin ([3]; compound present during affinity purification) | binding of 67 kDa ADMP-1 doublet to aggrecanase-inhibitor hydroxamate resin ([3]; 10 uM compound included during affinity purification)
1 | CNC(=O)[C@H]1CCCNN1C(=O)[C@@H](CC(C)C)[C@@H](C)C(=O)NO [Compound A, N3-methyl-(3R)-2-[(2S)-2-[(1R)-2-(hydroxyamino)-1-methyl-2-oxoethyl]-4-methylpentanoyl]hexahydro-3-pyridazinecarboxamide] | broad spectrum inhibitor; also recorded: potent inhibitor | ineffective; also recorded: inactive | not affected | 
2 | CNC(=O)[C@@H]1CCCCNC(=O)CC[C@H](C(=O)NO)[C@H](CC(C)C)C(=O)N1 [Compound B, (2S,11S, 12S)-12-isobutyl-2-[(methylamino)carbonyl]-11[(hydroxylamino)carbonyl]-8,13-dioxo-1,7-diazacyclotridecane] |  | potent ADMP inhibitor |  | blocked
3 | tissue inhibitor of metalloproteinases-1 [TIMP-1] |  | inhibited |  | 
